Measurements published in patent US11053218B2, “3-(1-oxoisoindolin-2-yl)piperidine-2,6-dione derivatives and uses thereof” (Novartis AG, priority 2017, dated 2021).
Read-outs that look alike come from different tables or passages of the source.

What was measured:
Type in all cases: cell-based
[1] = target: IKZF2 (Homo sapiens, UniProt Q96SW2+Q9UKS7); assay: Prolabel quantification of IKZF2 protein levels in 293GT cells
[2] = target: IKZF1 (Homo sapiens, UniProt Q13422+Q96SW2); assay: Prolabel quantification of IKZF1 protein levels in 293GT cells; settings: Prolabel assay, read-out: IKZF1 EC50
Chain of IKZF1 (Q13422 whole entry): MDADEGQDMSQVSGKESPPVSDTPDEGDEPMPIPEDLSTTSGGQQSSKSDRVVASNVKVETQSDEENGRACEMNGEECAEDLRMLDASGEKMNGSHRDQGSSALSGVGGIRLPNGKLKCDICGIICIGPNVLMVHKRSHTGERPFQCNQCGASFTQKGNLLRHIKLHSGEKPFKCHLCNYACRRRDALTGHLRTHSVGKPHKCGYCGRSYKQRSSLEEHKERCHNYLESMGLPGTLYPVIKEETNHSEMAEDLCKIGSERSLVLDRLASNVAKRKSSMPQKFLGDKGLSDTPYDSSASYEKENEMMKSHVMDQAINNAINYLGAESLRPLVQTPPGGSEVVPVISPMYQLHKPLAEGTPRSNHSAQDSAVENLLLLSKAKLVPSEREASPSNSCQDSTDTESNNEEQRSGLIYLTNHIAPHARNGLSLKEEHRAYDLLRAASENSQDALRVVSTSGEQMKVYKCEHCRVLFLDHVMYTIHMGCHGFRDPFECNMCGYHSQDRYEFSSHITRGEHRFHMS
Chain of IKZF1 (Q96SW2 whole entry): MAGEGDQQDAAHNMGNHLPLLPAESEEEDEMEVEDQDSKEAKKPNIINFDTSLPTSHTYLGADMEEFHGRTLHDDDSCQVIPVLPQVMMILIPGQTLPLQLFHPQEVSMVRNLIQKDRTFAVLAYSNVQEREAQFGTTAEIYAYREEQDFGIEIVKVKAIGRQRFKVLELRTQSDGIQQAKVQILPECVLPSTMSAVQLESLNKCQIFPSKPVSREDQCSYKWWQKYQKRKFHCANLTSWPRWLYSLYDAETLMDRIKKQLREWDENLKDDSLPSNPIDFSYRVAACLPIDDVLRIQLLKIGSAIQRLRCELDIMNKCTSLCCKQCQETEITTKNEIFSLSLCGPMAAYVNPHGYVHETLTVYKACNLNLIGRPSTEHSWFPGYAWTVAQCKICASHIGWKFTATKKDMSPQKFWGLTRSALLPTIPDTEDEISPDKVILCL
Chain of IKZF1 (Q16531 whole entry partner): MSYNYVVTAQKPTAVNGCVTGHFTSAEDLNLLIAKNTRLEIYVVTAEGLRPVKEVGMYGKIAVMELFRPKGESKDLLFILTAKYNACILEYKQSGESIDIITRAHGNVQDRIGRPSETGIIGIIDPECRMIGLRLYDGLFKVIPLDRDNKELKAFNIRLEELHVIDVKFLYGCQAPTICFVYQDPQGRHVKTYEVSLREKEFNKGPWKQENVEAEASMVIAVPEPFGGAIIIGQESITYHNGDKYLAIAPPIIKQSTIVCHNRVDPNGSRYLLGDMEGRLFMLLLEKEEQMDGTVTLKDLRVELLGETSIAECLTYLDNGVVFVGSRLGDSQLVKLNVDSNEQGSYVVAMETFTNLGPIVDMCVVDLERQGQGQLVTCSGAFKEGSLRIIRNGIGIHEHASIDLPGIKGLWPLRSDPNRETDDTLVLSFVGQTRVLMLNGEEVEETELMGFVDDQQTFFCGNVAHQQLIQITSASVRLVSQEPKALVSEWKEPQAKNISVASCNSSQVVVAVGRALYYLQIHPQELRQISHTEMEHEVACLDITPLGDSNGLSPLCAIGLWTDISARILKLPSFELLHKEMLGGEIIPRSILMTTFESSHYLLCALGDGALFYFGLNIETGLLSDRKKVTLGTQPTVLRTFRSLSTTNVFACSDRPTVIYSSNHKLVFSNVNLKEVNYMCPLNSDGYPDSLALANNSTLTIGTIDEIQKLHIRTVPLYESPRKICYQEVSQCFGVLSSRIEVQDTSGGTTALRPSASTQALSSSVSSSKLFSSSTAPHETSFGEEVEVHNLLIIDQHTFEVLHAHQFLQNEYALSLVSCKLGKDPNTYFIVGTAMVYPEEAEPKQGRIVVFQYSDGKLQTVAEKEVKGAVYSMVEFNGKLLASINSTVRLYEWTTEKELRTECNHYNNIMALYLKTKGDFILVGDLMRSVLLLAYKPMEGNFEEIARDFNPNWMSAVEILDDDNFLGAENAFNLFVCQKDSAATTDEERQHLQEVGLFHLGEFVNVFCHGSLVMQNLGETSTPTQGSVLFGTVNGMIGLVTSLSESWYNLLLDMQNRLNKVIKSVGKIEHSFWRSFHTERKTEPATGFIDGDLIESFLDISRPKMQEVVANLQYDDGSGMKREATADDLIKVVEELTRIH

[3] = target: GSPT1 (Homo sapiens, UniProt P15170+Q96SW2); assay: Prolabel quantification of GSPT1 protein levels in 293GT cells; settings: Prolabel assay, read-out: GSPT1 EC50
Chain of GSPT1 (P15170 whole entry): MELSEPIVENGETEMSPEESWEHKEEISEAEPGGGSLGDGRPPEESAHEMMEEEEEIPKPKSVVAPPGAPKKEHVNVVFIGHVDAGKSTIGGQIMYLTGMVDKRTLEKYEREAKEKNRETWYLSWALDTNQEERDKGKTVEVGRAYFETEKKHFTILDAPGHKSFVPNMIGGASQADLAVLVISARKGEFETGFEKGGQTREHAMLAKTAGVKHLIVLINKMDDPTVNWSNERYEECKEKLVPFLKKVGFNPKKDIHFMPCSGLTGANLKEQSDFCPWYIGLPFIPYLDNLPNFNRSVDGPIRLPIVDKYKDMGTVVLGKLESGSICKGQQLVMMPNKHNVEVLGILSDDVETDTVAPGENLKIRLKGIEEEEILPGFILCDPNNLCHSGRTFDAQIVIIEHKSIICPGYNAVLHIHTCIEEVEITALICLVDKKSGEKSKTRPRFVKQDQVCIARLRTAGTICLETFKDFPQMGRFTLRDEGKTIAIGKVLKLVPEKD
Chain of GSPT1 (Q96SW2 whole entry): as the sequence (Q96SW2 whole entry) above
Chain of GSPT1 (Q16531 whole entry partner): as the sequence (Q16531 whole entry partner) above

[4] = Prolabel assay, 293GT cells; read-out: IKZF2 EC50
[5] = 24 h, 10 μM, 24 h, 293GT cells; read-out: IKZF2 % protein reduction at 10 μM, 24 h
[6] = Prolabel assay in HEK293GT cells, bar graph

Chain of IKZF2 (Q9UKS7 whole entry): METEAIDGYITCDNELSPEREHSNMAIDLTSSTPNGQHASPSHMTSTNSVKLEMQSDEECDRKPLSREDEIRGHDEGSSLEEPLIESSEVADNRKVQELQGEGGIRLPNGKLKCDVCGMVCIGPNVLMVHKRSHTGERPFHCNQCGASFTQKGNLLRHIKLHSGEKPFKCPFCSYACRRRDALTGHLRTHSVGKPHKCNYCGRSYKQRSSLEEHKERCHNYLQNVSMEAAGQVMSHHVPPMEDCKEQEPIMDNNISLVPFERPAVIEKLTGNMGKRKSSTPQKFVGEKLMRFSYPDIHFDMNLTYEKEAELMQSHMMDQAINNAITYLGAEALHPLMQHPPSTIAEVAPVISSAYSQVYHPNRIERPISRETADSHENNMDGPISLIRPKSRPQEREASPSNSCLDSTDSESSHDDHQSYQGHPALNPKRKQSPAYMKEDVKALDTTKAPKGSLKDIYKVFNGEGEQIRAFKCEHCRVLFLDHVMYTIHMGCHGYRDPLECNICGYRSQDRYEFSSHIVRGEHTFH
Chain of IKZF2 (Q96SW2 whole entry): as the sequence (Q96SW2 whole entry) above
Chain of IKZF2 (Q16531 whole entry partner): as the sequence (Q16531 whole entry partner) above

In the case of `O=C1CCC(N2Cc3cc(C4CCN(Cc5ccc(-c6ccccc6)cc5)CC4)ccc3C2=O)C(=O)N1` (centres unmarked) [Compound I-90, 3-(5-(1-([1,1′-biphenyl]-4-ylmethyl)piperidin-4-yl)-1-oxoisoindolin-2-yl)piperidine-2,6-dione], the inhibition at 10 µM ([1]; 10 μM, 24 h, 293GT cells; read-out: IKZF2 % protein reduction at 10 μM, 24 h) is reported as 65%, the DC50 [1, 4] is reported as 0.007 µM and the DC50 [2] is reported as > 50 µM. For the same compound, the DC50 [3] was > 50 µM.

`O=C1CCC(N2Cc3cc(C4CCN(Cc5ccc6c(c5)OCCCO6)CC4)ccc3C2=O)C(=O)N1` (centres unmarked) [Compound I-88, 3-(5-(1-((3,4-dihydro-2H-benzo[b][1,4]dioxepin-7-yl)methyl)piperidin-4-yl)-1-oxoisoindolin-2-yl)piperidine-2,6-dione] was tested, and the inhibition at 10 µM [1, 5] was 70%, the DC50 [1, 4] was 0.005 µM and the DC50 [2] was > 30 µM. The DC50 [3] was > 30 µM.

In the case of `O=C1CCC(N2Cc3cc(C4CCN(Cc5cccnc5)CC4)ccc3C2=O)C(=O)N1` (centres unmarked) [Compound I-59, 3-(1-oxo-5-(1-(pyridin-3-ylmethyl)piperidin-4-yl)isoindolin-2-yl)piperidine-2,6-dione], the inhibition at 10 µM [1, 5] is reported as 80%, the DC50 [1, 4] is reported as 0.031 µM and the DC50 [2] is reported as > 30 µM. For the same compound, the DC50 [3] was > 30 µM.

With `Cc1nc2sccn2c1CN1CCC(c2ccc3c(c2)CN(C2CCC(=O)NC2=O)C3=O)CC1` (centres unmarked) [Compound I-125, 3-(5-(1-((6-methylimidazo[2,1-b]thiazol-5-yl)methyl)piperidin-4-yl)-1-oxoisoindolin-2-yl)piperidine-2,6-dione] the inhibition at 10 µM [1, 5] was 60%, the DC50 [1, 4] was 0.24 µM and the DC50 [2] was > 30 µM. For the same compound, the DC50 [3] was > 30 µM.

With `O=C1CCC(N2Cc3cc(C4CCN(Cc5cc6ccccc6[nH]5)CC4)ccc3C2=O)C(=O)N1` (centres unmarked) [Compound I-136, 3-(5-(1-((1H-indo1-2-yl)methyl)piperidin-4-yl)-1-oxoisoindolin-2-yl)piperidine-2,6-dione] the inhibition at 10 µM [1, 5] was 80%, the “IKZF2 protein levels as compared to the control (DMSO)” value [1, 6] was “decreased” and the DC50 [1, 4] was 0.012 µM. For the same compound, the DC50 [2] was > 30 µM and the DC50 [3] was > 30 µM.

`O=C1CCC(N2Cc3cc(C4CCN(Cc5nc(-c6ccccc6)c[nH]5)CC4)ccc3C2=O)C(=O)N1` (centres unmarked) [Compound I-154, 3-(1-oxo-5-(1-((4-phenyl-1H-imidazol-2-yl)methyl)piperidin-4-yl)isoindolin-2-yl)piperidine-2,6-dione] was tested, and the inhibition at 10 µM [1, 5] was 85%, the DC50 [1, 4] was 0.008 µM and the DC50 [2] was 0.043 µM. For the same compound, the DC50 [3] was > 30 µM.

In the case of `O=C1CCC(N2Cc3cc(C4CCN(Cc5ccc(C(F)F)cc5)CC4)ccc3C2=O)C(=O)N1` (centres unmarked) [Compound I-70, 3-(5-(1-(4-(difluoromethyl)benzyl)piperidin-4-yl)-1-oxoisoindolin-2-yl)piperidine-2,6-dione], the inhibition at 10 µM [1, 5] is reported as 75%, the DC50 [1, 4] is reported as 0.012 µM and the DC50 [2] is reported as > 30 µM. The DC50 [3] was > 30 µM.

`O=C1CCC(N2Cc3cc(C4CCN(Cc5ccc6nccnc6c5)CC4)ccc3C2=O)C(=O)N1` (centres unmarked) [Compound I-239, 3-(1-oxo-5-(1-(quinoxalin-6-ylmethyl)piperidin-4-yl)isoindolin-2-yl)piperidine-2,6-dione] was tested, and the inhibition at 10 µM [1, 5] was 70%, the DC50 [1, 4] was 0.007 µM and the DC50 [2] was > 30 µM. The DC50 [3] was > 30 µM.

For `O=C1CCC(N2Cc3cc(C4CCN(Cc5cc6n(n5)CCCC6)CC4)ccc3C2=O)C(=O)N1` (centres unmarked) [Compound I-135, 3-(1-oxo-5-(1-((4,5,6,7-tetrahydropyrazolo[1,5-a]pyridin-2-yl)methyl)piperidin-4-yl)isoindolin-2-yl)piperidine-2,6-dione], the inhibition at 10 µM [1, 5] was 60%, the DC50 [1, 4] was 0.057 µM and the DC50 [2] was > 30 µM. The DC50 [3] was > 30 µM.

`Cc1ccc(CN2CCC(c3ccc4c(c3)CN(C3CCC(=O)NC3=O)C4=O)CC2)cc1` (centres unmarked) [Compound I-158, 3-(5-(1-(4-methylbenzyl)piperidin-4-yl)-1-oxoisoindolin-2-yl)piperidine-2,6-dione] was tested, and the inhibition at 10 µM [1, 5] was 55%, the DC50 [1, 4] was 0.016 µM and the DC50 [2] was > 50 µM. The DC50 [3] was > 50 µM.

For `CC(=O)Nc1ccc(CN2CCC(c3ccc4c(c3)CN(C3CCC(=O)NC3=O)C4=O)CC2)cc1` (centres unmarked) [Compound I-86, N-(4-((4-(2-(2,6-dioxopiperidin-3-yl)-1-oxoisoindolin-5-yl)piperidin-1-yl)methyl)phenyl)acetamide], the inhibition at 10 µM [1, 5] was 75%, the DC50 [1, 4] was 0.029 µM and the DC50 [2] was > 30 µM. For the same compound, the DC50 [3] was > 30 µM.

With `O=C1CCC(N2Cc3cc(C4CCN(Cc5cccc6[nH]ncc56)CC4)ccc3C2=O)C(=O)N1` (centres unmarked) [Compound I-43, 3-(5-(1-((1H-indazol-4-yl)methyl)piperidin-4-yl)-1-oxoisoindolin-2-yl)piperidine-2,6-dione] the inhibition at 10 µM [1, 5] was 80%, the “IKZF2 protein levels as compared to the control (DMSO)” value [1, 6] was “decreased” and the DC50 [1, 4] was 0.012 µM. For the same compound, the DC50 [2] was > 30 µM and the DC50 [3] was > 30 µM.

For `O=C1CCC(N2Cc3cc(C4CCNCC4)ccc3C2=O)C(=O)N1` (centres unmarked) [Compound I-155, 3-(1-oxo-5-(piperidin-4-yl)isoindolin-2-yl)piperidine-2,6-dione], the inhibition at 10 µM [1, 5] was 40%, the DC50 [2] was > 50 µM and the DC50 [3] was > 50 µM.

For `O=C1CCC(N2Cc3cc(C4CCN(Cc5cnc(N6CCOCC6)nc5)CC4)ccc3C2=O)C(=O)N1` (centres unmarked) [Compound I-147, 3-(5-(1-((2-morpholinopyrimidin-5-yl)methyl)piperidin-4-yl)-1-oxoisoindolin-2-yl)piperidine-2,6-dione], the inhibition at 10 µM [1, 5] was 75%, the “IKZF2 protein levels as compared to the control (DMSO)” value [1, 6] was “decreased” and the DC50 [1, 4] was 0.025 µM. For the same compound, the DC50 [2] was > 30 µM and the DC50 [3] was > 30 µM.

In the case of `O=C1CCC(N2Cc3cc(C4CCN(CC(F)(F)F)CC4)ccc3C2=O)C(=O)N1` (centres unmarked) [Compound I-253, 3-(1-oxo-5-(1-(2,2,2-trifluoroethyl)piperidin-4-yl)isoindolin-2-yl)piperidine-2,6-dione], the inhibition at 10 µM [1, 5] is reported as 0%, the DC50 [1, 4] is reported as > 50 µM and the DC50 [2] is reported as > 50 µM. The DC50 [3] was > 50 µM.

For `N#CCc1ccc(CN2CCC(c3ccc4c(c3)CN(C3CCC(=O)NC3=O)C4=O)CC2)cc1` (centres unmarked) [Compound I-206, 2-(4-((4-(2-(2,6-dioxopiperidin-3-yl)-1-oxoisoindolin-5-yl)piperidin-1-yl)methyl)phenyl)acetonitrile], the inhibition at 10 µM [1, 5] was 80%, the DC50 [1, 4] was 0.009 µM and the DC50 [2] was > 30 µM. For the same compound, the DC50 [3] was > 30 µM.

`Cn1nc(CN2CCC(c3ccc4c(c3)CN(C3CCC(=O)NC3=O)C4=O)CC2)c2ccccc21` (centres unmarked) [Compound I-203, 3-(5-(1-((1-methyl-1H-indazol-3-yl)methyl)piperidin-4-yl)-1-oxoisoindolin-2-yl)piperidine-2,6-dione] was tested, and the inhibition at 10 µM [1, 5] was 50%, the DC50 [1, 4] was 0.016 µM and the DC50 [2] was > 30 µM. For the same compound, the DC50 [3] was > 30 µM.

In the case of `O=C1CCC(N2Cc3cc(C4CCN(CC5CCCCC5)CC4)ccc3C2=O)C(=O)N1` (centres unmarked) [Compound I-11, 3-(5-(1-(cyclohexylmethyl)piperidin-4-yl)-1-oxoisoindolin-2-yl)piperidine-2,6-dione], the inhibition at 10 µM [1, 5] is reported as 65%, the DC50 [1, 4] is reported as 0.013 µM and the DC50 [2] is reported as > 50 µM. The DC50 [3] was > 50 µM.

For `CCC(C)(C)c1ccc(CN2CCC(c3ccc4c(c3)CN(C3CCC(=O)NC3=O)C4=O)CC2)cc1` (centres unmarked) [Compound I-89, 3-(1-oxo-5-(1-(4-(tert-pentyl)benzyl)piperidin-4-yl)isoindolin-2-yl)piperidine-2,6-dione], the inhibition at 10 µM [1, 5] was 70%, the DC50 [1, 4] was 0.033 µM and the DC50 [2] was > 30 µM. The DC50 [3] was > 30 µM.

For `O=C1CCC(N2Cc3cc(C4CCN(Cc5ccnc6ccccc56)CC4)ccc3C2=O)C(=O)N1` (centres unmarked) [Compound I-214, 3-(1-oxo-5-(1-(quinolin-4-ylmethyl)piperidin-4-yl)isoindolin-2-yl)piperidine-2,6-dione], the inhibition at 10 µM [1, 5] was 70%, the DC50 [1, 4] was 0.019 µM and the DC50 [2] was > 50 µM. For the same compound, the DC50 [3] was > 30 µM.

In the case of `O=C1CCC(N2Cc3cc(C4CCN(Cc5cc[nH]n5)CC4)ccc3C2=O)C(=O)N1` (centres unmarked) [Compound I-118, 3-(5-(1-((1H-pyrazol-3-yl)methyl)piperidin-4-yl)-1-oxoisoindolin-2-yl)piperidine-2,6-dione], the inhibition at 10 µM [1, 5] is reported as 55%, the DC50 [1, 4] is reported as 0.065 µM and the DC50 [2] is reported as > 50 µM. The DC50 [3] was > 50 µM.
